# Assay results as given in the supplement of paper PMC10307832.
# What was measured:
# Assay in all cases: relative viability (nuclei count vs DMSO), 5 days (fraction); higher = more cells survive
# [1] = tested on: NCI-H1395
# Summary of the method: (§1)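 Relative viability divides the nuclei count in treated wells by that in vehicle wells. Lung cancer cell lines were seeded in 1536-well plates, dosed by pin tool the next day, and fixed and stained after 5 days in one step with final 0.05% Triton X-100, 1% formaldehyde and 1 ug/ml Hoechst. Dosing was a single drug or a fixed anchor-drug dose plus five library-drug doses (not always all listed) in √10 steps, and values are medians of duplicate plates imaged at 4×.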
# [2] = tested on: HCC-827
# Summary of the method: as §1
# [3] = tested on: SK-MES-1
# Summary of the method: as §1
# [4] = tested on: NCI-H1355
# Summary of the method: as §1
# [5] = tested on: H3255
# Summary of the method: as §1
# [6] = tested on: NCI-H2087
# Summary of the method: as §1
# [7] = tested on: UMC-11
# Summary of the method: as §1
# [8] = tested on: NCI-H1993
# Summary of the method: as §1
# [9] = tested on: NCI-H520
# Summary of the method: as §1
# [10] = tested on: NCI-H2405
# Summary of the method: as §1
# [11] = tested on: EMC-BAC-2
# Summary of the method: as §1
smiles,measurement,setting,value
Clc1ccc(Nc2nnc(Cc3ccncc3)c3ccccc23)cc1 [Vatalanib] + CC1(C)CCC(c2ccc(Cl)cc2)=C(CN2CCN(c3ccc(C(=O)NS(=O)(=O)c4ccc(N[C@H](CCN5CCOCC5)CSc5ccccc5)c(S(=O)(=O)C(F)(F)F)c4)cc3)CC2)C1 [Navitoclax] (partner 0.5 µM),relative viability,[1]; first compound 0.04 µM,1.17
same,relative viability,[1]; first compound 0.1265 µM,1.07
same,relative viability,[1]; first compound 0.4 µM,1.37
same,relative viability,[1]; first compound 1.265 µM,1.07
same,relative viability,[1]; first compound 4 µM,1.08
same,relative viability,[2]; first compound 0.04 µM,1.01
same,relative viability,[2]; first compound 0.1265 µM,0.982
same,relative viability,[2]; first compound 0.4 µM,1.06
same,relative viability,[2]; first compound 1.265 µM,0.994
same,relative viability,[2]; first compound 4 µM,0.97
same,relative viability,[3]; first compound 0.04 µM,1.2
same,relative viability,[3]; first compound 0.1265 µM,1.21
same,relative viability,[3]; first compound 0.4 µM,1.28
same,relative viability,[3]; first compound 1.265 µM,1.01
same,relative viability,[3]; first compound 4 µM,1.15
same,relative viability,[4]; first compound 0.04 µM,0.962
same,relative viability,[4]; first compound 0.1265 µM,0.927
same,relative viability,[4]; first compound 0.4 µM,1.01
same,relative viability,[4]; first compound 1.265 µM,0.875
same,relative viability,[4]; first compound 4 µM,0.917
same,relative viability,[5]; first compound 0.04 µM,0.608
same,relative viability,[5]; first compound 0.1265 µM,0.469
same,relative viability,[5]; first compound 0.4 µM,0.458
same,relative viability,[5]; first compound 1.265 µM,0.444
same,relative viability,[5]; first compound 4 µM,0.521
same,relative viability,[6]; first compound 0.04 µM,1.11
same,relative viability,[6]; first compound 0.1265 µM,1.09
same,relative viability,[6]; first compound 0.4 µM,1.07
same,relative viability,[6]; first compound 1.265 µM,0.994
same,relative viability,[6]; first compound 4 µM,0.964
same,relative viability,[7]; first compound 0.04 µM,0.274
same,relative viability,[7]; first compound 0.1265 µM,0.367
same,relative viability,[7]; first compound 0.4 µM,0.303
same,relative viability,[7]; first compound 1.265 µM,0.29
same,relative viability,[7]; first compound 4 µM,0.322
same,relative viability,[8]; first compound 0.04 µM,0.894
same,relative viability,[8]; first compound 0.1265 µM,0.935
same,relative viability,[8]; first compound 0.4 µM,0.826
same,relative viability,[8]; first compound 1.265 µM,0.789
same,relative viability,[8]; first compound 4 µM,0.63
same,relative viability,[9]; first compound 0.04 µM,0.974
same,relative viability,[9]; first compound 0.1265 µM,1.02
same,relative viability,[9]; first compound 0.4 µM,1.1
same,relative viability,[9]; first compound 1.265 µM,0.907
same,relative viability,[9]; first compound 4 µM,1.06
same,relative viability,[10]; first compound 0.04 µM,0.856
same,relative viability,[10]; first compound 0.1265 µM,0.726
same,relative viability,[10]; first compound 1.265 µM,0.728
same,relative viability,[10]; first compound 4 µM,0.713
same,relative viability,[11]; first compound 0.04 µM,1.18
same,relative viability,[11]; first compound 0.1265 µM,1.12
